Patent publication US10723998B2, “Application of ethyl p-methoxycinnamate and derivatives thereof in maintaining self-renewal and pluripotency of stem cells” (NORTHEAST NORMAL UNIVERSITY, priority 2015, dated 2020)

Experiments:
Oct4 mRNA = Oct4 mRNA expression by RT-PCR and agarose gel electrophoresis in P19 cells; format: cell-based, mouse; settings: 5 μg/mL, 12 h, DMSO control, FIG. 2
Procedure: P19 cells were inoculated in a 6-well cell culture plate at a density of 2×10^5 cells/well. After 24 h, DMEM culture medium containing 3% serum were used for replacement. Ethyl p-methoxycinnamate was added to the experimental group to render its final concentration at 5 μg/mL, and a control group was treated with DMSO. After 12 h, the 6-well plate overgrown with monolayer cells was taken out from a cell incubator, and the cells were washed 3 times with pre-cooled PBS. 1 mL of a pre-cooled Trizol solution was added. After vigorous pipetting, the mixture was transferred to an EP tube and allowed to stand at room temperature for 5 min. Then 200 μL of chloroform was added to the mixture, vigorously mixed well for 15 s, and the mixture containing chloroform was allowed to stand at room temperature for 2 min and centrifuged at 12000 rpm at 4° C. for 15 min. An upper aqueous phase was pipetted into another EP tube, and an equal volume of pre-cooled isopropanol was added, and the mixture was inverted several times and allowed to stand at room temperature for 10 min to precipitate RNA. After centrifugation at 12000 rpm for 10 min, the supernatant was discarded, and to the precipitate was added 1 mL of 75% ethanol (prepared by 0.1% DEPC water) for washing, followed by centrifugation at 7500 rpm for 5 min (this step was repeated once). The supernatant was discarded. […]

mouse teratoma cells P19 [1] = experiment: Formation of microspheres of suspendedly cultured stem cells (soft agar, MTT dyeing); format: cell-based; settings: 5 μg/mL, P19 cells on 0.5% soft agar, 7 d, compared with DMSO control; FIG. 4
Procedure: 5 g agar was weighed and placed in a flask, then 100 mL of ultra-pure water was added, and the mixture was mixed well, sealed, and then autoclaved for 30 min. In a super clean bench, 9 mL of pre-heated (50-60° C.) serum-free DMEM culture medium was pipetted into a 10 mL centrifuge tube, then 1 mL of uncooled 5% agar was added, and rapidly mixed well with a pipette, resulting in 0.5% agar. 1 mL of 0.5% agar was pipetted into one well of a 6-well plate and cooled at room temperature for 20-30 min, resulting in a 0.5% soft agar culture medium.
In the super clean bench, D-Hanks was gently added to the surface of the soft agar culture medium, and the D-Hanks was discarded after being gently shaken 2 to 3 times. Cleaning was repeated once. The mouse teratoma cells P19 were gently inoculated on the surface of the soft agar culture medium at a cell density of 4×10^5 cells/well. After the cell inoculation, ethyl p-methoxycinnamate was added to 1 mL of DMEM culture medium containing 10% fetal calf serum, mixed well, and then gently added to the experimental group. A final concentration of ethyl p-methoxycinnamate was 5 μg/mL. The control group was treated with DMSO. […]

mouse teratoma cells P19 [2] = experiment: Formation of microspheres of adherently cultured stem cells; format: cell-based; settings: 5 μg/mL, 3% fetal calf serum DMEM, 22 d, compared with control, FIG. 5
Procedure: In a super clean bench, mouse teratoma cells P19 were inoculated in a 6-well plate at a density of 1×10^4 cells/well, and DMEM culture medium containing 10% fetal calf serum was added to result in a final volume of 2 mL. The cell culture plate was gently shaken, so that the cells were uniformly distributed in the cell culture plate, and then placed in a cell incubator to be cultured. After 24 h, the old culture medium were discarded, and 3% fetal calf serum DMEM culture medium containing ethyl p-methoxycinnamate was added, so that the final concentration of ethyl p-methoxycinnamate was 5 μg/mL. The original culture medium was discarded every 24 h, and fresh DMEM culture medium containing 3% fetal calf serum was added, and the final concentration of ethyl p-methoxycinnamate therein was made to be 5 μg/mL likewise. After continuous culture of 22 d, the cells were photographed.

With `CCOC(=O)C=Cc1ccc(OC)cc1` [ethyl p-methoxycinnamate] the “effect on the expression of Oct4 mRNA” value (Oct4 mRNA) was “can significantly promote the expression of Oct4 mRNA”, the “formation of microspheres of suspendedly cultured stem cells” value (mouse teratoma cells P19 [1]) was “the P19 cells can form a higher amount of larger and more typical microspheres” and the “formation of microspheres of adherently cultured stem cells” value (mouse teratoma cells P19 [2]) was “the P19 cells can form typical microspheres”.
